How the values were obtained:
[1] = biological target: DRD2 (Homo sapiens, UniProt P14416); assay: PRESTO-TANGO β-arrestin recruitment assay (HTLA cells transfected with DRD2-TANGO, luciferase readout); type: cell-based; set-up: TEV protease site and fused transcription factor (TANGO module); expressed in transfected cells; host or cells: HTLA cells (gift of G. Barnea), transiently transfected; conditions: for activity in β-arrestin recruitment (in words): PRESTO-TANGO; for EC50: PRESTO-TANGO β-arrestin recruitment, luciferase activity, Hill slope of 1.0; for difference in potency of probe vs parent compound: β-arrestin recruitment, probes vs their parent compounds
DRD2, sequence (P14416 whole entry, the tested form may be a part): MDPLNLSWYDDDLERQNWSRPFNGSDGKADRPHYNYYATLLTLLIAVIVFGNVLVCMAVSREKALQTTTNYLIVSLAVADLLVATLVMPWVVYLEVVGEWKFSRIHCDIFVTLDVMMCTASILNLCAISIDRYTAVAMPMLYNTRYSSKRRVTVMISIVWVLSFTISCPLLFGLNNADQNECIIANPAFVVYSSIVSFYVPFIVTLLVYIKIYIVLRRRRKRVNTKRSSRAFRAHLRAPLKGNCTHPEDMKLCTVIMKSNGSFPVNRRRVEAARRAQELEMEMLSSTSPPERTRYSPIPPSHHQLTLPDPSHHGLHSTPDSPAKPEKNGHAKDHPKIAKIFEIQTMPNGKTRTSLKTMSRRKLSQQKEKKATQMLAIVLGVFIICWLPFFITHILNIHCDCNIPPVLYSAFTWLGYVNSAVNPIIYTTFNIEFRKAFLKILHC
Excerpt: To characterize the response of the β-arrestin effector pathway to our ligands, we used the Parallel-Receptor-ome Expression and Screening via Transcriptional Output TANGO (PRESTO-TANGO) assay developed in the Roth lab.[44],[45] This assay uses luciferase activity to monitor β-arrestin recruitment by DRD2 (Figure 3a).
Figure 3 β-Arrestin recruitment analysis. (a) PRESTO-TANGO assay schematic: a ligand binds a chimeric DRD2 receptor, which then recruits β-arrestin fused with a TEV protease. The protease cuts a site between the receptor and a fused transcription factor, which then transits to the […] to initiate transcription of a luciferase gene. The luciferase activity is subsequently quantified.
HTLA cells were a gift from the laboratory of G. Barnea and were maintained in DMEM supplemented with 10% FBS, 100 U/mL penicillin, 100 μg/mL streptomycin, 2 μg/mL puromycin, 100 μg/mL hygromycin B, and 100 μg/mL G418 in a humidified atmosphere at 37 °C in 5% CO2. On day 1, cells were plated at a density of 1 × 10^5 cells/cm^2 in a black wall, clear-bottom 96-well plate (Nunc). The following day (day 2), cells were transfected with a 10× solution of 3:1 mixture of DRD2-TANGO/Optifect Transfection Reagent (Thermo) in unsupplemented DMEM. On day 3, 1× drug stimulation solutions were prepared in filter-sterilized unsupplemented DMEM. The transfection media was shaken or aspirated from the wells, and drug stimulation solutions were gently added. On day 4, drug solutions were removed from one well every 10 s (to maintain consistency of incubation time) and 50 μL per well of Bright-Glo solution (Promega) diluted 20-fold in HBSS was added. After incubation for 2 min at room temperature, luminescence was counted with an integration time of 10 s in a Spectramax i3x plate reader (Molecular Devices).

[2] = system: DRD2-expressing cell line (DRD2-Strep Tag II fusion HEK293T); assay: Colocalization analysis via confocal microscopy of photo-cross-linked, dye-clicked probe in cells; type: cell-based, human; conditions: probe 5 μM, Alexa Fluor 555 azide clicked
Protocol: After the biochemical characterization of the dynamic interaction between the probe and target, we set out to characterize the static interaction: colocalization of probe and receptor in cells, with an emphasis on both on- and off-target labeling. Specifically, due to the known propensity for photo-cross-linking groups to nonspecifically label, we wanted a holistic view of how the probes interacted with whole cells. Thus, we treated our DRD2-expressing cell line with a 5 μM solution of the probe, photo-cross-linked, “clicked” on an azido fluorophore, and labeled the DRD2 receptor via an antibody conjugated to a complementary fluorophore (Figure 4a). Our results (Figure 4b) indicate that there is indeed background labeling with the probes. […] We therefore proceeded to quantify the specific vs nonspecific binding of the probe.
Figure 4 Photo-cross-linking of dye-clicked probe: confocal microscopy. (a) Schematic of the methodology used in the labeling process. […]
HEK293T cells and a stable HEK293T-derived cell line-expressing DRD2-Strep Tag II fusion were maintained in DMEM supplemented with 10% FBS, 100 U/mL penicillin, and 100 μg/mL streptomycin in a humidified atmosphere at 37 °C in 5% CO2. […] The cells were then washed 3 times with TBS and imaged for Alexa Fluor 488 fluorescence and AF555 fluorescence using a Zeiss LSM 980 with Airyscan 2. […]

| activity in β-arrestin recruitment (in words) [1] | EC50 [1] [µM] | difference in potency of probe vs parent compound [1] [×] | SMILES | labeling of DRD2-expressing cells (confocal microscopy) [2] |
| --- | --- | --- | --- | --- |
| low micromolar activity | 1.32 | ~1000 | C#CCOc1ccc(C(=O)c2ccc(CNCCc3cccc4c3CC(=O)N4)cc2)cc1 [Compound 5, 4-(2-((4-(4-(Prop-2-yn-1-yloxy)benzoyl)benzyl)amino)ethyl)indolin-2-one] | higher avidity relative to the other probes |
| low micromolar activity | 0.99 | ~1000 | C#CCOc1ccc(C(=O)c2ccc(CN[C@H]3CCc4nc(N)sc4C3)cc2)cc1 [Compound 7, (S)-(4-(((2-Amino-4,5,6,7-tetrahydrobenzo[d]thiazol-6-yl)amino)methyl)phenyl)(4-(prop-2-yn-1-yloxy)phenyl)methanone] | higher avidity relative to the other probes |

Reference: paper PMC9585581, “Developing Photoaffinity Probes for Dopamine Receptor D2 to Determine Targets of Parkinson’s Disease Drugs” (ACS Chemical Neuroscience, 2022)
